{
  "source": "PubChem BioAssay AID1259409",
  "about": "(Chemical Carcinogenesis Research Information System (CCRIS), 2018)",
  "origin": "cited, not measured here",
  "tested_on": "rodent chemically induced tumor inhibition, incidence and multiplicity",
  "experiment": "CCRIS tumor inhibitor studies",
  "data": [
    {"compound": "O=C(OC[C@@H]1O[C@H](OC(=O)c2cc(O)c(O)c(OC(=O)c3cc(O)c(O)c(O)c3)c2)[C@@H](OC(=O)c2cc(O)c(O)c(OC(=O)c3cc(O)c(O)c(O)c3)c2)[C@H](OC(=O)c2cc(O)c(O)c(OC(=O)c3cc(O)c(O)c(O)c3)c2)[C@H]1OC(=O)c1cc(O)c(O)c(OC(=O)c2cc(O)c(O)c(O)c2)c1)c1cc(O)c(O)c(OC(=O)c2cc(O)c(O)c(O)c2)c1", "values": [
      {"measurement": "tumour outcome (control, treated, inhibition, significance)", "setting": "Carcinogen: 2,2'-DIHYDROXY-DI-N-PROPYLNITROSAMINE, 53609-64-6, N-ETHYL-N-HYDROXYETHYLNITROSAMINE, 13147-25-6, 3,2'-DIMETHYL-4-AMINO-, Carcinogen: 2,2'-DIHYDROXY-DI-N-PROPYLNITROSAMINE, 53609-64-6, N-ETHYL-N-HYDROXYETHYLNITROSAMINE, 13147-25-6, 3,2'-DIMETHYL-4-AMINO-, Dose [Inhibitor]: 0, 1% IN DIET FOR 32 WK BEGINNING 1 WK POST CARCINOGEN TREATMENT (STUDY DURATION: 36 WK), Route [Inhibitor]: ORAL, Species: RAT, Strain/Sex: F344/MALE, Target Tissue: Type of Lesion: KIDNEY: TRANSITIONAL CELL CARCINOMA, Dose [Carcinogen]: 1000 MG/KG BW DHPN TWICE, 1500 MG/KG BW EHEN TWICE, 75 MG/KG BW DMAB 3 TIMES ADMINISTERED OVER FIRST 3 WK, Promoter: NONE USED", "value": "1/14 (7%), 0/12 (0%), 100%, not significant"},
      {"measurement": "tumour outcome (control, treated, inhibition, significance)", "setting": "Carcinogen: 2,2'-DIHYDROXY-DI-N-PROPYLNITROSAMINE, 53609-64-6, N-ETHYL-N-HYDROXYETHYLNITROSAMINE, 13147-25-6, 3,2'-DIMETHYL-4-AMINO-, Carcinogen: 2,2'-DIHYDROXY-DI-N-PROPYLNITROSAMINE, 53609-64-6, N-ETHYL-N-HYDROXYETHYLNITROSAMINE, 13147-25-6, 3,2'-DIMETHYL-4-AMINO-, Dose [Inhibitor]: 0, 1% IN DIET FOR 32 WK BEGINNING 1 WK POST CARCINOGEN TREATMENT (STUDY DURATION: 36 WK), Route [Inhibitor]: ORAL, Species: RAT, Strain/Sex: F344/MALE, Target Tissue: Type of Lesion: LARGE INTESTINE: ADENOMA, Dose [Carcinogen]: 1000 MG/KG BW DHPN TWICE, 1500 MG/KG BW THEN TWICE, 75 MG/KG BW DMAB 3 TIMES ADMINISTERED OVER FIRST 3 WK, Dose [Carcinogen]: 1000 MG/KG BW DHPN TWICE, 1500 MG/KG BW THEN TWICE, 75 MG/KG BW DMAB 3 TIMES ADMINISTERED OVER FIRST 3 WK, Promoter: NONE USED", "value": "7/14 (50%), 2/12 (17%), 66%, not significant"},
      {"measurement": "tumour outcome (control, treated, inhibition, significance)", "setting": "Carcinogen: 2,2'-DIHYDROXY-DI-N-PROPYLNITROSAMINE, 53609-64-6, N-ETHYL-N-HYDROXYETHYLNITROSAMINE, 13147-25-6, 3,2'-DIMETHYL-4-AMINO-, Carcinogen: 2,2'-DIHYDROXY-DI-N-PROPYLNITROSAMINE, 53609-64-6, N-ETHYL-N-HYDROXYETHYLNITROSAMINE, 13147-25-6, 3,2'-DIMETHYL-4-AMINO-, Dose [Inhibitor]: 0, 1% IN DIET FOR 32 WK BEGINNING 1 WK POST CARCINOGEN TREATMENT (STUDY DURATION: 36 WK), Route [Inhibitor]: ORAL, Species: RAT, Strain/Sex: F344/MALE, Target Tissue: Type of Lesion: LARGE INTESTINE: CARCINOMA, Dose [Carcinogen]: 1000 MG/KG BW DHPN TWICE, 1500 MG/KG BW THEN TWICE, 75 MG/KG BW DMAB 3 TIMES ADMINISTERED OVER FIRST 3 WK, Promoter: NONE USED", "value": "3/14 (21%), 1/12 (8%), 62%, not significant"},
      {"measurement": "tumour outcome (control, treated, inhibition, significance)", "setting": "Carcinogen: 2,2'-DIHYDROXY-DI-N-PROPYLNITROSAMINE, 53609-64-6, N-ETHYL-N-HYDROXYETHYLNITROSAMINE, 13147-25-6, 3,2'-DIMETHYL-4-AMINO-, Carcinogen: 2,2'-DIHYDROXY-DI-N-PROPYLNITROSAMINE, 53609-64-6, N-ETHYL-N-HYDROXYETHYLNITROSAMINE, 13147-25-6, 3,2'-DIMETHYL-4-AMINO-, Dose [Inhibitor]: 0, 1% IN DIET FOR 32 WK BEGINNING 1 WK POST CARCINOGEN TREATMENT (STUDY DURATION: 36 WK), Route [Inhibitor]: ORAL, Species: RAT, Strain/Sex: F344/MALE, Target Tissue: Type of Lesion: LIVER: HEPATOCELLULAR CARCINOMA, Dose [Carcinogen]: 1000 MG/KG BW DHPN TWICE, 1500 MG/KG BW THEN, 75 MG/KG BW DMAB 3 TIMES ADMINISTERED OVER FIRST 3 WKS, Promoter: NONE USED", "value": "6/14 (43%), 3/12 (25%), 42%, not significant"},
      {"measurement": "tumour outcome (control, treated, inhibition, significance)", "setting": "Carcinogen: 2,2'-DIHYDROXY-DI-N-PROPYLNITROSAMINE, 53609-64-6, N-ETHYL-N-HYDROXYETHYLNITROSAMINE, 13147-25-6, 3,2'-DIMETHYL-4-AMINO-, Carcinogen: 2,2'-DIHYDROXY-DI-N-PROPYLNITROSAMINE, 53609-64-6, N-ETHYL-N-HYDROXYETHYLNITROSAMINE, 13147-25-6, 3,2'-DIMETHYL-4-AMINO-, Dose [Inhibitor]: 0, 1% IN DIET FOR 32 WK BEGINNING 1 WK POST CARCINOGEN TREATMENT (STUDY DURATION: 36 WK), Route [Inhibitor]: ORAL, Species: RAT, Strain/Sex: F344/MALE, Target Tissue: Type of Lesion: LUNG: ADENOMA, Dose [Carcinogen]: 1000 MG/KG BW DHPN TWICE, 1500 MG/KG BW THEN TWICE, 75 MG/KG BW DMAB 3 TIMES ADMINISTERED OVER FIRST 3 WK, Dose [Carcinogen]: 1000 MG/KG BW DHPN TWICE, 1500 MG/KG BW THEN TWICE, 75 MG/KG BW DMAB 3 TIMES ADMINISTERED OVER FIRST 3 WK, Promoter: NONE USED", "value": "7/14 (50%), 7/12 (58%), -16%, not significant"},
      {"measurement": "tumour outcome (control, treated, inhibition, significance)", "setting": "Carcinogen: 2,2'-DIHYDROXY-DI-N-PROPYLNITROSAMINE, 53609-64-6, N-ETHYL-N-HYDROXYETHYLNITROSAMINE, 13147-25-6, 3,2'-DIMETHYL-4-AMINO-, Carcinogen: 2,2'-DIHYDROXY-DI-N-PROPYLNITROSAMINE, 53609-64-6, N-ETHYL-N-HYDROXYETHYLNITROSAMINE, 13147-25-6, 3,2'-DIMETHYL-4-AMINO-, Dose [Inhibitor]: 0, 1% IN DIET FOR 32 WK BEGINNING 1 WK POST CARCINOGEN TREATMENT (STUDY DURATION: 36 WK), Route [Inhibitor]: ORAL, Species: RAT, Strain/Sex: F344/MALE, Target Tissue: Type of Lesion: LUNG: CARCINOMA, Dose [Carcinogen]: 1000 MG/KG BW DHPN TWICE, 1500 MG/KG BW THEN TWICE, 75 MG/KG BW DMAB 3 TIMES ADMINISTERED OVER FIRST 3 WK, Promoter: NONE USED", "value": "1/14 (7%), 2/12 (17%), -143%, not significant"},
      {"measurement": "tumour outcome (control, treated, inhibition, significance)", "setting": "Carcinogen: 2,2'-DIHYDROXY-DI-N-PROPYLNITROSAMINE, 53609-64-6, N-ETHYL-N-HYDROXYETHYLNITROSAMINE, 13147-25-6, 3,2'-DIMETHYL-4-AMINO-, Carcinogen: 2,2'-DIHYDROXY-DI-N-PROPYLNITROSAMINE, 53609-64-6, N-ETHYL-N-HYDROXYETHYLNITROSAMINE, 13147-25-6, 3,2'-DIMETHYL-4-AMINO-, Dose [Inhibitor]: 0, 1% IN DIET FOR 32 WK BEGINNING 1 WK POST CARCINOGEN TREATMENT (STUDY DURATION: 36 WK), Route [Inhibitor]: ORAL, Species: RAT, Strain/Sex: F344/MALE, Target Tissue: Type of Lesion: THYROID GLAND: CARCINOMA, Dose [Carcinogen]: 1000 MG/KG BW DHPN TWICE, 1500 MG/KG BW THEN TWICE, 75 MG/KG BW DMAB 3 TIMES ADMINISTERED OVER FIRST 3 WK, Promoter: NONE USED", "value": "3/14 (21%), 2/12 (17%), 19%, not significant"},
      {"measurement": "tumour outcome (control, treated, inhibition, significance)", "setting": "Carcinogen: 2,2'-DIHYDROXY-DI-N-PROPYLNITROSAMINE, 53609-64-6, N-ETHYL-N-HYDROXYETHYLNITROSAMINE, 13147-25-6, 3,2'-DIMETHYL-4-AMINO-, Carcinogen: 2,2'-DIHYDROXY-DI-N-PROPYLNITROSAMINE, 53609-64-6, N-ETHYL-N-HYDROXYETHYLNITROSAMINE, 13147-25-6, 3,2'-DIMETHYL-4-AMINO-, Dose [Inhibitor]: 0, 1% IN DIET FOR 32 WK BEGINNING 1 WK POST CARCINOGEN TREATMENT (STUDY DURATION: 36 WK), Route [Inhibitor]: ORAL, Species: RAT, Strain/Sex: F344/MALE, Target Tissue: Type of Lesion: URINARY BLADDER: CARCINOMA, Dose [Carcinogen]: 1000 MG/KG BW DHPN TWICE, 1500 MG/KG BW THEN TWICE, 75 MG/KG BW DMAB 3 TIMES ADMINISTERED OVER FIRST THREE WEEKS, Promoter: NONE USED", "value": "1/14 (7%), 2/12 (17%), -143%, not significant"},
      {"measurement": "outcome", "setting": "Carcinogen: 2,2'-DIHYDROXY-DI-N-PROPYLNITROSAMINE, 53609-64-6, N-ETHYL-N-HYDROXYETHYLNITROSAMINE, 13147-25-6, 3,2'-DIMETHYL-4-AMINO-, Carcinogen: 2,2'-DIHYDROXY-DI-N-PROPYLNITROSAMINE, 53609-64-6, N-ETHYL-N-HYDROXYETHYLNITROSAMINE, 13147-25-6, 3,2'-DIMETHYL-4-AMINO-, Dose [Inhibitor]: 0, 1% IN DIET FOR 32 WK BEGINNING 1 WK POST CARCINOGEN TREATMENT (STUDY DURATION: 36 WK), Route [Inhibitor]: ORAL, Species: RAT, Strain/Sex: F344/MALE, Target Tissue: Type of Lesion: URINARY BLADDER: PAPILLOMA, Dose [Carcinogen]: 1000 MG/KG BW DHPN TWICE, 1500 MG/KG BW THEN TWICE, 75 MG/KG BW DMAB 3 TIMES ADMINISTERED OVER FIRST 3 WK, Promoter: NONE USED", "value": "0/14 (0%), 3/12 (25%), -100%, not significant"},
      {"measurement": "tumour outcome (control, treated, inhibition, significance)", "setting": "Carcinogen: 7,12-DIMETHYLBENZ(A)ANTHRACENE [57-97-6], Dose [Inhibitor]: 400 UG IN 200 µL ACETONE ONCE 24 HR AFTER THE LAST INJECTION OF IRON DEXTRAN (STUDY DURATION: 35 WKS), Route [Inhibitor]: DERMAL, Species: MOUSE, Strain/Sex: SWISS ALBINO/FEMALE, Target Tissue: Type of Lesion: SKIN: TUMORS, Dose [Carcinogen]: 40 UG IN 200 µL ACETONE DAILY FOR 5 D BEGINNING 1 HR AFTER TANNIC ACID TREATMENT (STUDY DURATION: 35 WKS), Promoter: IRON DEXTRAN [9004-66-4]", "value": "70%, 10%, 86%, not calculated"},
      {"measurement": "tumour outcome (control, treated, inhibition, significance)", "setting": "Carcinogen: 7,12-DIMETHYLBENZ(A)ANTHRACENE [57-97-6], Dose [Inhibitor]: 400 UG IN 200 µL ACETONE ONCE (STUDY DURATION: 35 WKS), Route [Inhibitor]: DERMAL, Species: MOUSE, Strain/Sex: SWISS ALBINO/FEMALE, Target Tissue: Type of Lesion: SKIN: TUMORS, Dose [Carcinogen]: 40 UG IN 200 µL ACETONE DAILY FOR 5 D BEGINNING 1 HR AFTER TANNIC ACID TREATMENT (STUDY DURATION: 35 WKS)", "value": "40%, 0%, 100%, not calculated"}
    ]}
  ]
}
